System: ventricular extrasystoles after LAD artery occlusion
Test: Antiarrythmic effect in a post myocardial infarction (MI) pig model (LAD ligation)
Assay type: in vivo
Description: The pharmaceutical cPn216-[…]OH (X) was examined according to the following procedure:
A pig was anaestetised and put on artificial overpressure ventilation. Access to the heart was obtained by a midline sternotomy and removal of the anterior pericardium. The LAD artery was occluded by ligation above the 2nd branch and one of the collaterals was occluded as well. This caused development of frequent ventricular extrasystoles, known to proceed into ventricular tachycardia and fibrillation within minutes from previous experiments with the same type of preparation. […] An initial rise in mean blood pressure was noticed. Ventricular extrasystoles reappeared gradually after about 15 minutes and a new injection of 0.5 mg of the compound of formula (X) was given. […] The pig was then given a lethal dose of potassium chloride to terminate the experiment.
A similar set of observations was made in a second pig experiment.

[1] = pig, hour following second 0.5 mg injection

Q: `CCC(C)[C@H](NC(=O)[C@@H]1CCCN1C(=O)[C@H](Cc1cnc[nH]1)NC(=O)[C@@H](NC(=O)[C@H](Cc1ccc(O)cc1)NC(=O)[C@@H](NC(=O)[C@H](CCCNC(=N)N)NC(=O)CNCCC(CCNC(C)(C)/C(C)=N\O)CCNC(C)(C)/C(C)=N\O)C(C)C)C(C)CC)C(=O)O` (some centres unmarked) [(X)] was tested. Which “Duration of QRS complexes (ECG before and after first injection)” value (pig, ECG recordings before and after the first injection) did it give?
A: shortening

Q: What about the “Heart rhythm after first intravenous injection” value (pig, LAD occluded, frequent ventricular extrasystoles, i.v. 0,5 mg, within few minutes) of the same molecule?
A: Complete stabilisation of the condition with return to sinus rhythm

Q: What about the “Time until ventricular extrasystoles reappeared” value (pig, after first i.v. injection of 0,5 mg) of the same molecule?
A: about 15 minutes

Q: And the “Blood pressure during the following hour” value [1]?
A: slightly reduced but adequate constant

Q: And the “Heart rhythm during the following hour” value [1]?
A: stable sinus rhythm

Q: What about the “Mean blood pressure after first injection” value (pig, i.v. 0,5 mg, first injection) of the same molecule?
A: initial rise

Q: And the “Heart rhythm after second injection” value (pig, new injection of 0.5 mg after reappearance of extrasystoles)?
A: stabilised with regular sinus rhythm

Q: And the “Overall anti-arrythmic activity in this preparation” value (post-MI pig preparation)?
A: act as an anti-arrythmic drug

— US7785566B2, “Pharmaceutical compounds” (GE Healthcare, Inc., priority 2003, dated 2010)
